From US20230218589A1, “COMPOUND FOR PREVENTION OR TREATMENT OF A SKIN CANCER OR SKIN PRECANCER” (UNIQUEST PTY LTD, priority 2020, published 2023)
Entries after “also recorded” stand apart in the source; their conditions may differ. Read-outs that look alike come from different tables or passages of the source.

Experiments:
CD8+ T cells = assay: Mouse T cell proliferation assay (Cell Trace Violet, 7AAD, flow cytometry); format: cell-based; conditions: 3 days
Procedure: Spleens, inguinal and brachial lymph nodes were harvested from two C57BL/6 mice in sterile conditions and placed in sterile Phosphate Buffered Saline (PBS), then cells were dissociated into a single cell suspension by gently crushing all organs through a 70 μm cell strainer. Cells were washed through the strainer into a 50 mL falcon tube with 5 mL sterile ACK lysis buffer (0.15 M NH4Cl, 1 mM KHCO3 pH 7.3). Cells were incubated for 3 min at room temperature to lyse red blood cells. 5 mL sterile PBS was added to the cell suspension and cells were centrifuged at 350 g for 10 min at room temperature. Supernatant was removed and the cell pellet resuspended in 10 mL sterile PBS. Cells were centrifuged again at 350 g for 10 min at room temperature. The supernatant was removed and the cells were resuspended in 1 mL of sterile PBS.
1 μμL of 5 mM CellTrace Violet (Thermo Fisher) was added to the cell suspension and the mixture was swirled to ensure even dispersion of the dye. Cells were incubated for 20 min in the dark at room temperature. 5 mL of pre-warmed complete RPMI medium [(RPMI 1640 (Gibco), 10% heat inactivated FBS (Gibco), 1× Penicillin/Streptomycin/L-Glutamine, 100 μM 2-Mercaptoethanol] was added to the cell suspension and incubated in the dark at room temperature for 5 min. Cells were centrifuged at 350 g for 5 min at room temperature. Supernatant was removed without disrupting the cell pellet. Cells were resuspended in 1 mL complete RPMI medium.
Cells were counted using a haemocytometer and cells were adjusted to 2×10^6 cells/mL using complete RPMI medium. 500 μL of cell suspension was added to wells in a 48-well plate (Nunc) so the final number of cells per well was 1×10^6.
A vial of Dynabeads Mouse T Activator CD3/CD28 beads (4×10^7 beads/mL) was vortexed for 30 sec and 625 μL of beads was aliquoted into a 5 mL polypropylene FACS tube (Sarstedt). 1 mL of complete RPMI medium was added to the beads and mixed by pipetting. The FACS tube was placed in a StemCell Technologies EasySep magnet for 1 minute and supernatant was discarded. The tube was removed from the magnet and washed beads were resuspended in 625 μL of complete RPMI medium. 12.5 μL of bead suspension (5×10^5 beads) was added into appropriate wells of the 48-well plate with cell suspensions to induce T cell activation.
Cells were incubated in a humidified incubator at 37° C. with 5% CO2 for 1 hour before Compound 1 (or vehicle only) was diluted in complete RPMI medium and added to the appropriate wells at the concentration required. The final volume in all wells was 1 mL. Cells were incubated for 3 days in a humidified incubator at 37° C. with 5% CO2.
Cells were harvested from each well by resuspending cells with a pipette and transferring to polypropylene FACS tubes. […]

[1] = cSCC tumour pharmacokinetics after intra-tumoural injection (LC/MS/MS); format: in vivo, mouse; conditions: for concentration at 1 h / concentration at 6 h / concentration at 18 h: K14-HPV38-E6/E7, mouse, in vivo
Procedure: Tumour processing: The whole tumour was removed from the mouse. The weight of the tumour was recorded and tumour was placed into an appropriate cryovial on dry ice then transferred to a −80° C. freezer. 3 tumours per time point were assessed.
Calibration standards and quality control samples were prepared by adding 2.5 μL of stock solutions of test compound of different concentrations into 25 μL of naive mouse blood or skin homogenates. Control samples were prepared by spiking 2.5 μL of water or acetonitrile into 25 μL of naïve mouse blood or skin homogenates. Tumour samples were homogenised in 1 mL of PBS then transferred into polypropylene Eppendorf tubes. 100 μL of 0.1 M zinc sulfate was added into the tubes, vortexed for 10 sec, and 250 μL of HPLC-grade acetonitrile containing internal standard (pimecrolimus) was added, vortexed for 2 min, and centrifuged for 3 min at 800×g. 20-40 μL of the supernatant was analysed by LCMS/MS. Instrument: Acquity UPLC, Waters. Column: Acquity BEH C18 100×2.1 mm, 1.7 micron; Mobile phase A: methanol; Mobile phase B: 5 mM ammonium acetate with 0.1% formic acid; Mobile phase gradient details: T=0 min (10% A, 90% B); T=0.01 min (10% A, 90% B); gradient to T=1.5 min (95% A, 5% B); T=3.2 min (95% A, 5% B). Flow rate: 0.3 mL/min, run time: 4.5 min; Ionisation mode: Electrospray ionisation (positive).

Compound | rescue of CD8+ T cell proliferation in the presence of tacrolimus (CD8+ T cells; 0.3 μM, 1 μM and 3 μM Compound 1 with 0.6 ng/mL tacrolimus) | effect on CD8+ T cell viability in the absence of tacrolimus (CD8+ T cells; Compound 1 0.3-3 μM, no tacrolimus, 7AAD) | effect on CD8+ T cell proliferation in the absence of tacrolimus (CD8+ T cells; Compound 1 0.3-3 μM, no tacrolimus) | concentration at 1 h ([1]; 1 h post final dose, SCC tumours, read-out: Average Concentration Compound 1 in tumour) [ng/g] | concentration at 6 h ([1]; 6 h post final dose, SCC tumours, read-out: Average Concentration Compound 1 in tumour) [ng/g] | concentration at 18 h ([1]; 18 h post final dose, SCC tumours, read-out: Average Concentration Compound 1 in tumour) [ng/g] | average tumour concentration of Compound 1 relative to that of tacrolimus ([1]; over 18 h) | CD8+ T cell proliferation compared to the vehicle control (CD8+ T cells; 0.6 ng/mL tacrolimus, CD3/CD28 beads) | concentration at 1 h [1] [ng/g] | concentration at 6 h [1] [ng/g] | concentration at 18 h [1] [ng/g]
CC[C@@H]1/C=C(\C)[C@@H](O)[C@H](C)C[C@H](OC)[C@H]2O[C@@](O)(C(=O)C(=O)N3CCCC[C@H]3C(=O)O[C@H](/C(C)=C/[C@@H]3CC[C@@H](O)[C@H](OC)C3)[C@H](C)[C@@H](O)CC1=O)[C@H](C)C[C@@H]2OC [Compound 1, 17-Ethyl-1,14,20-trihydroxy-12-[2′-(4″-hydroxy-3″-methoxycyclohexyl)-1′-methylvinyl]-23,25-dimethoxy-13,19,21,27-tetramethyl-11,28-dioxa-4-azatricyclo-[22.3.1.0^4,9]octacos-18-ene-2,3,10,16-tetraone] | dose dependent rescue; also recorded: dose dependently and significantly rescued | no significant effect | no significant effect | 165000 | 148000 | 168000 | more than 2000 fold | – | – | – | –
C=CC[C@@H]1/C=C(\C)C[C@H](C)C[C@H](OC)[C@H]2O[C@@](O)(C(=O)C(=O)N3CCCC[C@H]3C(=O)O[C@H](/C(C)=C/[C@@H]3CC[C@@H](O)[C@H](OC)C3)[C@H](C)[C@@H](O)CC1=O)[C@H](C)C[C@@H]2OC [tacrolimus, reference compound] | – | – | – | – | – | – | – | inhibited | 33 | 73 | 52
